The source of these data is PubChem BioAssay AID1918956 (Molecular Pharmacology Branch, DTP, NCI, 2023).

As a reminder, the viability, T/C is the result in the treated group divided by that in the control group, in per cent. The IC50 is the concentration that gives 50% inhibition.

The assay relates to OVCAR-5 complex spheroids, viability. Description: Anticancer human tumor OVCAR-5 cell line growth inhibition.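 As to all read-outs here: spheroids exposed to agents for seven days.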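 As to viability, T/C: 100% = DMSO vehicle control wells viability.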 The settings on record: for viability, T/C: stronger effect = lower value. Summed up: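 Drug combinations with the LSD1 inhibitor iadademstat tested on tumor cells co-cultured as spheroids with endothelial cells and mesenchymal stem cells. Concentrations descended in half-log increments from clinical Cmax or 10 microM.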

Setting [1] is: curve of first compound, second compound 0.1 µM.
Setting [2] is: curve of first compound, second compound 0.316 µM.
Where [3] appears, read: curve of first compound, second compound 1 µM.
The mark [4] stands for this setting: curve of first compound, second compound 3.16 µM.
Where [5] appears, read: curve of first compound, second compound 10 µM.
Setting [6] is: second compound 0.1 µM, first compound 0.00316 µM.
[7] abbreviates: second compound 0.1 µM, first compound 0.01 µM.
[8] abbreviates: second compound 0.1 µM, first compound 0.0316 µM.
[9] abbreviates: second compound 0.1 µM, first compound 0.1 µM.
Where [10] appears, read: second compound 0.1 µM, first compound 0.316 µM.
Where [11] appears, read: second compound 0.1 µM, first compound 1 µM.
The mark [12] stands for this setting: second compound 0.316 µM, first compound 0.00316 µM.
Where [13] appears, read: second compound 0.316 µM, first compound 0.01 µM.
[14] abbreviates: second compound 0.316 µM, first compound 0.0316 µM.
The mark [15] stands for this setting: second compound 0.316 µM, first compound 0.1 µM.
[16] abbreviates: second compound 0.316 µM, first compound 0.316 µM.
Where [17] appears, read: second compound 0.316 µM, first compound 1 µM.
[18] abbreviates: second compound 1 µM, first compound 0.00316 µM.
[19] abbreviates: second compound 1 µM, first compound 0.01 µM.
Setting [20] is: second compound 1 µM, first compound 0.0316 µM.
The mark [21] stands for this setting: second compound 1 µM, first compound 0.1 µM.
Where [22] appears, read: second compound 1 µM, first compound 0.316 µM.
Where [23] appears, read: second compound 1 µM, first compound 1 µM.
Setting [24] is: second compound 3.16 µM, first compound 0.00316 µM.
Setting [25] is: second compound 3.16 µM, first compound 0.01 µM.
[26] abbreviates: second compound 3.16 µM, first compound 0.0316 µM.
Where [27] appears, read: second compound 3.16 µM, first compound 0.1 µM.
The mark [28] stands for this setting: second compound 3.16 µM, first compound 0.316 µM.
Where [29] appears, read: second compound 3.16 µM, first compound 1 µM.
Where [30] appears, read: second compound 10 µM, first compound 0.00316 µM.
Where [31] appears, read: second compound 10 µM, first compound 0.01 µM.
The mark [32] stands for this setting: second compound 10 µM, first compound 0.0316 µM.
Setting [33] is: second compound 10 µM, first compound 0.1 µM.
Where [34] appears, read: second compound 10 µM, first compound 0.316 µM.
Setting [35] is: second compound 10 µM, first compound 1 µM.

“And” between values parts separate entries of the source, which are not always exact repeats. Equal entries are not always repeated.

`Nc1ncn(C2CC(O)C(CO)S2)c(=O)n1` (stereo unspecified): the viability, T/C was 107% and 104% (compound 0.000949 µM); 104% and 109% (compound 0.003 µM); 104% (compound 0.00949 µM); 97.1% and 94.2% (compound 0.03 µM); 82.2% and 85.6% (compound 0.0949 µM); 78.2% and 72.3% (compound 0.3 µM). Further, the half-maximal inhibitory concentration (IC50) (curve of compound) is over 300 nM.

Take `O=C(C=Cc1cccc(S(=O)(=O)Nc2ccccc2)c1)NO` + NC1CCC(NC2CC2c2ccccc2)CC1: the IC50 runs as follows: under setting [1], 157 nM; under setting [2], 172 nM; under setting [3], 192 nM; under setting [4], 167 nM; under setting [5], 173 nM. In addition, the viability, T/C is, setting by setting: (second compound 0.1 µM, first compound 0.00949 µM) 98.5%; (second compound 0.1 µM, first compound 0.03 µM) 92.8%; (second compound 0.1 µM, first compound 0.0949 µM) 62.8%; (second compound 0.1 µM, first compound 0.3 µM) 31.2%; (second compound 0.1 µM, first compound 0.949 µM) 15.3%; (second compound 0.1 µM, first compound 3 µM) 4.12%. Further, the viability, T/C runs as follows: (second compound 0.316 µM, first compound 0.00949 µM) 95.7%; (second compound 0.316 µM, first compound 0.03 µM) 89.1%; (second compound 0.316 µM, first compound 0.0949 µM) 64.6%; (second compound 0.316 µM, first compound 0.3 µM) 35.5%; (second compound 0.316 µM, first compound 0.949 µM) 14.4%; (second compound 0.316 µM, first compound 3 µM) 3.93%. The viability, T/C was 106% (second compound 1 µM, first compound 0.00949 µM); 96% (second compound 1 µM, first compound 0.03 µM); 69.7% (second compound 1 µM, first compound 0.0949 µM); 37.8% (second compound 1 µM, first compound 0.3 µM); 14.3% (second compound 1 µM, first compound 0.949 µM); 6.24% (second compound 1 µM, first compound 3 µM). Further, the viability, T/C is, setting by setting: (second compound 3.16 µM, first compound 0.00949 µM) 88%; (second compound 3.16 µM, first compound 0.03 µM) 86.1%; (second compound 3.16 µM, first compound 0.0949 µM) 62.2%; (second compound 3.16 µM, first compound 0.3 µM) 35.3%; (second compound 3.16 µM, first compound 0.949 µM) 15.6%; (second compound 3.16 µM, first compound 3 µM) 3.02%. In addition, the viability, T/C is, setting by setting: (second compound 10 µM, first compound 0.00949 µM) 89.5%; (second compound 10 µM, first compound 0.03 µM) 89.2%; (second compound 10 µM, first compound 0.0949 µM) 60%; (second compound 10 µM, first compound 0.3 µM) 37.8%; (second compound 10 µM, first compound 0.949 µM) 16.7%; (second compound 10 µM, first compound 3 µM) 2.99%.

On to `Nc1ncn(C2CC(O)C(CO)O2)c(=O)n1` (stereo unspecified) + NC1CC1c1ccc(-c2cccc(O)c2)cc1, for which the half-maximal inhibitory concentration (IC50) by setting is: under setting [1], over 1000 nM; under setting [2], over 1000 nM; under setting [3], over 1000 nM; under setting [4], over 1000 nM; under setting [5], over 1000 nM. Besides, the viability, T/C is 103% under setting [6]; 98.5% under setting [7]; 83.4% under setting [8]; 74.2% under setting [9]; 68.2% under setting [10]; 65.8% under setting [11]. Further, the viability, T/C reads like this: under setting [12], 93.6%; under setting [13], 98.5%; under setting [14], 87.4%; under setting [15], 70.5%; under setting [16], 70.2%; under setting [17], 66.2%. Further, the viability, T/C under setting [18] was 94.9%; the viability, T/C under setting [19] is 99.6%; the viability, T/C under setting [20] is 87.6%; the viability, T/C under setting [21] is 66.1%; the viability, T/C under setting [22] is 67.8%; the viability, T/C under setting [23] is 66.7%. Also, the viability, T/C reads like this: under setting [24], 89%; under setting [25], 85.9%; under setting [26], 70.3%; under setting [27], 72%; under setting [28], 61.1%; under setting [29], 64.5%. The viability, T/C under setting [30] is 83%; the viability, T/C under setting [31] is 80.1%; the viability, T/C under setting [32] was 72%; the viability, T/C under setting [33] is 60.3%; the viability, T/C under setting [34] is 58%; the viability, T/C under setting [35] was 61.2%.

For the compound `CC1COCCN1c1cc(-c2ccnn2C)c2ccnc(-c3ccn[nH]3)c2n1` (stereo unspecified), the viability, T/C reads like this: (compound 0.00316 µM) 105% and 92.5%; (compound 0.01 µM) 86.5% and 81.7%; (compound 0.0316 µM) 58.9% and 50.4%; (compound 0.1 µM) 39.9% and 36.2%; (compound 0.316 µM) 34.4% and 32.6%; (compound 1 µM) 32.2% and 27%. Besides, the IC50 (curve of compound) is 54.5 nM and 35.5 nM.

Turning to `NC1CC1c1ccc(-c2cccc(O)c2)cc1` (stereo unspecified), the viability, T/C (compound 10 µM) was 89.8% [middle of 25 runs]. The IC50 (compound alone, run of 12/07/2021) is over 10000 nM.

With `O=C(C=Cn1cnc(-c2cc(C(F)(F)F)cc(C(F)(F)F)c2)n1)NNc1cnccn1` + NC1CCC(NC2CC2c2ccccc2)CC1, the IC50 was 235 nM under setting [1]; 215 nM under setting [2]; over 1000 nM under setting [3]; 705 nM under setting [4]; 312 nM under setting [5]. The viability, T/C by setting is: under setting [6], 97.6%; under setting [7], 88.2%; under setting [8], 67.2%; under setting [9], 55%; under setting [10], 50.3%; under setting [11], 44.9%. The viability, T/C under setting [12] was 104%; the viability, T/C under setting [13] was 85.8%; the viability, T/C under setting [14] was 69.6%; the viability, T/C under setting [15] is 51%; the viability, T/C under setting [16] is 49.6%; the viability, T/C under setting [17] is 45.7%. For the same compound, the viability, T/C by setting is: under setting [18], 88.4%; under setting [19], 84.1%; under setting [20], 68.8%; under setting [21], 59.4%; under setting [22], 54.5%; under setting [23], 50.3%. For the same compound, the viability, T/C reads like this: under setting [24], 97.9%; under setting [25], 88.1%; under setting [26], 74.4%; under setting [27], 60%; under setting [28], 57.2%; under setting [29], 46.9%. For the same compound, the viability, T/C by setting is: under setting [30], 83.6%; under setting [31], 84.7%; under setting [32], 70.6%; under setting [33], 59.8%; under setting [34], 50%; under setting [35], 46.3%.
